Experimental findings from patent publication US7884247B2, “Salt of dimethylaminomethyl-phenyl-cyclohexane and crystalline forms thereof” (Gruenenthal GmbH, priority 2005, dated 2011) are described below.

The structures appear in SMILES notation.

Data set [1] can be described thus: Stability under grinding conditions (trituration, ball mill). Type of data set: physicochemical. The protocol: The maleate produced according to Example A1 is triturated with a pestle in a mortar for 5 minutes. […] Amorphous fractions are not observed.
Crystalline form B according to Example D1 is triturated with a pestle in a mortar for 5 minutes.
The maleate produced according to Example A1 is introduced into an agate ball mill (Retsch MM200 mixing mill with 5 mm agate ball) and ground at 20 Hz and room temperature for 180 minutes. […] Amorphous fractions are not observed.
The procedure is carried out in accordance with Example E4c) with crystalline form B according to Example D1.

Data set [2] is described as follows: Stability under pressure (tablet pressing). Type of data set: physicochemical. Conditions: tablet press, vacuum, 100 MPa, 60 minutes. The protocol: The maleate produced according to Example A1 is introduced into a tablet press and pressed under a vacuum at a pressure of 100 MPa for 60 minutes to form a tablet.
The procedure is carried out in accordance with Example E5a) with crystalline form B according to Example D1.

The nature of data set [3]: Storage under elevated atmospheric humidity, samples investigated by Raman spectroscopy. Conditions: room temperature, 75% relative atmospheric humidity. Type of data set: physicochemical. An excerpt:
The amorphous form according to Example B1 is stored at room temperature and 75% relative atmospheric humidity and samples are investigated after 2 days, 1, 2, 3, 4 and 8 weeks using Raman spectroscopy. […] The same mixture is still observed after 8 weeks.
The maleate produced according to Example A1 is stored at room temperature and 75% relative atmospheric humidity and samples are investigated after 3 days, 1, 2, 3, 4, 8 and 10 weeks using Raman spectroscopy.
The crystalline form B produced according to Example D1 is stored at room temperature and 75% relative atmospheric humidity and samples are investigated after 3 days, 1, 2, 3, 4 and 8 weeks using Raman spectroscopy.
FT Raman spectra are recorded using a Bruker RFS 100 FT-Raman system, which is operated with an Nd:YAG laser (wavelength 1064 nm) and a germanium detector cooled with liquid nitrogen. For each sample, 64 scans are accumulated with a resolution of 2 cm^−1. In general, a laser power of 100 mW is used.

A short description of data set [4]: General properties stated in the description (solubility, hygroscopicity).
Data set [5] in a line: Water absorption by Dynamic Vapour Sorption (Example E6). Type of data set: physicochemical. Conditions: 25° C.; for Crystalline form at the end of the DVS measuring cycle: maleate; for Water absorption: DVS. The protocol: Water absorption is determined by means of dynamic water vapour absorption (Dynamic Vapour Sorption, DVS) using apparatus DVS-1 from Surface Measurement System Ltd. The sample is placed in a platinum crucible at the tip of a microchemical balance. Then the sample is firstly equilibrated at 50% relative atmospheric humidity and then subjected to a predefined measuring program. The temperature is 25° C. The change in weight of the sample is determined.

Data set [6] is described as follows: Damp storage and drying of maleate and hydrochloride (XRD, DSC, dry weight, Karl-Fischer water content). Type of data set: physicochemical. To be noted: for Change in crystalline form by X-ray diffraction pattern: after damp storage (25° C., 75% and 95% R.H., 7 days) and drying (50° C., vacuum, 7 days). The protocol: Maleate and hydrochloride according to Example E8 are stored firstly at 25° C. and 75% and 95% relative atmospheric humidity for 7 days and thereafter are dried for 7 days in the drying cabinet at 50° C. under a vacuum. Before storage begins, X-ray diffraction patterns (XRD) are recorded, DSC performed to determine transition points (Tp), dry weight (DW) and the Karl-Fischer water content (WC) are determined and the same values again after damp storage and drying. The X-ray diffraction patterns show no change in crystalline forms A and D after damp storage and drying. The initial vales for the hydrochloride are Tp=116.27° C., DW=6.35% and WC 8.00%. The initial values for the maleate are Tp=170.4° C. and 179.85° C., DW=0 and WC=0.2%. The results are given in Tables 3 (75% relative atmospheric humidity) and 4 (95% relative atmospheric humidity).

The nature of data set [7]: Water absorption of maleate and hydrochloride by DVS (Example E8, comparison). To be noted: 25° C. Type of data set: physicochemical. The protocol: Water absorption is determined by means of dynamic water vapour absorption (Dynamic Vapour Sorption, DVS) using apparatus DVS-1 from Surface Measurement System Ltd. The sample is placed in a platinum crucible at the tip of a microchemical balance. Then the sample is firstly equilibrated at 50% relative atmospheric humidity and then subjected to a predefined measuring program. The temperature is 25° C. The change in weight of the sample is determined after a stepwise increase in relative atmospheric humidity by 10% steps up to 90%.

The nature of data set [8]: Stability at elevated temperature in open and closed vessels (HPLC, FT Raman). Type of data set: physicochemical. The protocol:
The crystalline forms are stored in open and closed vessels and, after a predetermined time, possible changes are measured chromatographically (HPLC) as stability parameters.

A short description of data set [9]: Storage of amorphous form at room temperature and 20% or 90% atmospheric humidity for 24 hours. To be noted: 20 mg, room temperature. Type of data set: physicochemical.
[10] abbreviates: 75% R.H. storage, then dried 7 days at 50° C. under vacuum.
Setting [11] is: 95% R.H. storage, then dried 7 days at 50° C. under vacuum.
[12] abbreviates: after damp storage, 25° C., 75% relative atmospheric humidity, 7 days.
[13] abbreviates: after damp storage, 25° C., 95% relative atmospheric humidity, 7 days.
The mark [14] stands for this setting: 40° C./75% R.H., 1 week, maleate.
Setting [15] is: 60° C. (closed), 1 week, maleate.
The mark [16] stands for this setting: 60° C. (closed), 4 weeks, maleate.
[17] abbreviates: 60° C./75% R.H., 4 weeks, maleate.

In the case of `CN(C)C[C@@H]1CCCC[C@H]1c1cccc(O)c1.O=C(O)/C=C\C(=O)O` [Crystalline form A, (+)-(1R,2R)-3-[2-(dimethylamino)methyl-(cyclohex-1-yl)]-phenol maleate], the “Amorphous fractions after grinding” value in data set [1] (agate ball mill, 20 Hz, room temperature, 180 minutes) was “not observed”. In addition, the “Crystalline form after grinding” value in data set [1] (agate ball mill, 20 Hz, room temperature, 180 minutes, listed as Example A1, maleate) is recorded as “unchanged form”. The “Amorphous fractions after trituration” value in [1] (pestle in a mortar, 5 minutes) is “not observed”. In data set [1] (pestle in a mortar, 5 minutes, listed as Example A1, maleate), the “Crystalline form after trituration” value was “unchanged form”. Besides, the “Crystalline form after tablet pressing” value in [2] (listed as Example A1, maleate) was “unchanged form”. Further, in data set [3] (after 10 weeks), the “Crystalline form found by Raman spectroscopy after storage” value (“Crystalline form found” below) is “virtually unchanged”. For the same compound, in data set [4], the Hygroscopicity result was “non-hygroscopic”. Also, the “Solubility in polar solvents” value in data set [4] is recorded as “very good”. In addition, the “Crystalline form at the end of the DVS measuring cycle” value (from here on “Crystalline form at the end”) in data set [5] is “unchanged crystalline form A”. Further, the Water absorption result in [5] (measuring cycle) is given as “approx. 0.2 wt. %”; in [7] (relative atmospheric humidity raised in 10% steps up to 90%) it was 0.06%. Further, the Tp in [6] (setting [10]) came to 165.33 °C; in data set [6] (setting [12]) it was 165.41 °C. Moreover, the WC in [6] (setting [10]) was 0.20%; in [6] (setting [11]), 0.50%; in data set [6] (setting [12]), 0.20%; in data set [6] (setting [13]) it was 0.20%. In addition, the “Change in crystalline form by X-ray diffraction pattern” value in data set [6] is listed as “no change”. Further, the “DW (dry weight)” value in data set [6] (initial value, before storage) is recorded as 0%. For the same compound, the “WC (Karl-Fischer water content)” value in data set [6] (initial value, before storage) was 0.2%. Further, the “Release of the absorbed moisture” value in data set [7] (at approx. 10% relative atmospheric humidity) is on record as “released again completely”. Also, the HPLC in [8] (setting [14]) is reported as 100.2%; in data set [8] (setting [15]) it was 100.2%; in [8] (setting [16]), 100.5%; in data set [8] (setting [17]), 100.3%; in data set [8] (−18° C. (reference), 4 weeks), 100%. The “Stability at elevated temperature (summary)” value in data set [8] (storage in open and closed vessels) was “very stable with regard to chemical stability and crystal shape”.
Regarding `CN(C)C[C@@H]1CCCC[C@H]1c1cccc(O)c1.O=C(O)/C=C\C(=O)O` [Crystalline form B, (+)-(1R,2R)-3-[2-(dimethylamino)methyl-(cyclohex-1-yl)]-phenol maleate], the “Crystalline form after grinding” value in [1] (agate ball mill, 20 Hz, room temperature, 180 minutes, maleate) is “mixture of crystalline forms A and B”. In addition, the “Crystalline form after trituration” value in data set [1] (pestle in a mortar, 5 minutes, maleate) was “mixture of crystalline forms A and B”. For the same compound, the “Crystalline form after tablet pressing” value in [2] (maleate) was “mixture of crystalline forms A and B”. The “Crystalline form found” value in [3] (after 8 weeks, maleate) was “virtually unchanged”. Further, the “Solubility in polar solvents” value in data set [4] was “very good”. Besides, in [5], the “Crystalline form at the end” value is “mixture of crystalline forms A and B”. In [5] (measuring cycle), the Water absorption entry was “approx. 0.2 wt. %”. Besides, the “FT Raman (determination of crystalline form)” value in [8] (40° C./75% R.H., 1 week) is “A and B”; in data set [8] (60° C. (closed), 1 week) it was “A and B”; in [8] (60° C. (closed), 4 weeks), “A and B”; in [8] (60° C./75% R.H., 4 weeks), “A and B”; in data set [8] (−18° C. (reference), 4 weeks), “A and B”. Besides, the HPLC in [8] (setting [14]) is recorded as 100.3%; in [8] (setting [15]) it was 100.6%; in data set [8] (setting [16]) it was 100.9%; in data set [8] (setting [17]), 101.1%; in [8] (−18° C. (reference), 4 weeks) it was 100%.
As to `CN(C)C[C@@H]1CCCC[C@H]1c1cccc(O)c1.Cl` [Hydrochloride, (+)-(1R,2R)-3-[2-(dimethylamino)methyl-(cyclohex-1-yl)]-phenol hydrochloride], the Hygroscopicity entry in data set [4] was “decidedly hygroscopic”. In [6] (setting [10]), this compound registered a DW of 6.12%, a Tp of 113.83 °C and a WC of 6.00%. In [6] (setting [11]), this compound showed a DW of 6.74, a Tp of 114.47 °C and a WC of 6.60%. Also, the “Change in crystalline form by X-ray diffraction pattern” value in data set [6] is “no change”. In [6] (setting [12]), this compound gave a DW of 5.92%, a Tp of 116.22 °C and a WC of 8.50%. In data set [6] (setting [13]), this compound had a DW of 7.84%, a Tp of 116.52 °C and a WC of 8.50%. In data set [6] (initial value, before storage), the “DW (dry weight)” value stood at 6.35%; the “Tp (transition point, DSC)” value worked out at 116.27 °C; the “WC (Karl-Fischer water content)” value is 8.00%. In addition, the Water absorption altogether entry in [7] (further increase to 90% relative atmospheric humidity) is listed as “approx. 5 wt. %”. The Water absorption result in data set [7] (relative atmospheric humidity increased to approx. 75%) was “approx. 2 wt. %”. Further, the “Water released on desorption altogether” value in [7] (relative atmospheric humidity lowered in 10% steps) is reported as 8.5%.
With `CN(C)C[C@@H]1CCCC[C@H]1c1cccc(O)c1.O=C(O)/C=C\C(=O)O` [amorphous form, (+)-(1R,2R)-3-[2-(dimethylamino)methyl-(cyclohex-1-yl)]-phenol maleate], the “Form obtained after storage” value in [9] (20% atmospheric humidity) was “mixture of crystalline forms A and B”; in [9] (90% atmospheric humidity), “only crystalline form A”. In addition, the “Crystalline form found” value in data set [3] (after 8 weeks, maleate) is “same mixture”; in data set [3] (after 2 days), “mixture of crystalline forms A and B”. Besides, the “Crystalline form at the end” value in data set [5] is “mixture of crystalline forms A and B”. For the same compound, in data set [5] (up to approx. 33% relative atmospheric humidity), the Water absorption entry is listed as “approx. 2.2 wt. %”.
